The results in this text go back to patent publication EP3733658B1, “PRENYLATED BENZOPYRANES AS PPAR AGONISTS” (Universitat de València, priority 2017, dated 2019).

pEC50: −log10 of the molar value. Read-outs that look alike come from different tables or passages of the source.

The subject of data set [1] is human neutrophils. Nature of the data set: Annexin V / propidium iodide flow cytometry of apoptosis and survival, neutrophils. The class given is cell-based. The following applies: 100 µM, 24 h, compared to the vehicle. As for the experimental part:
(§1) In addition, the apoptosis and survival rate for human neutrophils and HUVEC was determined by double staining with annexin V and propidium iodide (PI) by flow cytometry.
(§2) Cytofluorometric analysis of apoptosis and survival. The kit FITC Annexin V Apoptosis Detection kit (BD Bioscience, San Jose, CA) was used. The staining protocol and all the reagents were supplied with the commercial kit. HUVEC were separated from the culture flasks by accutase (StemPro® Accutase® Cell dissociation reagent, Thermofischer Scientific Waltham, MA). Both cell types were incubated at 37°C for 24h in the presence or absence of the test compounds. Confluent HUVEC and freshly isolated neutrophils were washed, resuspended in binding buffer 1x (1 × 10^6 cells/mL) and stained with annexin V conjugated with FITC and propidium iodide (PI) as described in the manufacturer's instructions. The cells were analyzed in a BD FACSVerse Flow Cytometer (BD Biosciences, San Jose, CA) and differentiated as early apoptosis cells (annexin V^+ and PI^-), late apoptosis cells and/or necrotic cells (annexin V^+ and PI^+), and live cells (annexin V^- and PI^-).
(In flow cytometry, cells or beads pass a laser one at a time.)

Another data set deals with HUVEC. Nature of the data set: Annexin V / propidium iodide flow cytometry of apoptosis and survival, HUVEC. The class given is cell-based, human. The following applies: 24 h; for apoptosis and survival: 30 µM; for reduced cell survival: 100 µM. The procedure:
as §1, §2

The next data set has as its target T1, hPPARγ (Homo sapiens, UniProt P37231).
T1 sequence (P37231 238-505): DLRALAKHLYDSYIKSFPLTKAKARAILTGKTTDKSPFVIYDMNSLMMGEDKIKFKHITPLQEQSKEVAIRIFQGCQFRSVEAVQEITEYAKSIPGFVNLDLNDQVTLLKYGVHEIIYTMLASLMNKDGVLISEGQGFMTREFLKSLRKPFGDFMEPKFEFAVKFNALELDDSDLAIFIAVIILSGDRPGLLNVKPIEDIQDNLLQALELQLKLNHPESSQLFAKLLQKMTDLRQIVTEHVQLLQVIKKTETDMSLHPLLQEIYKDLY
Nature of the data set: PPAR/Gal4 chimera luciferase reporter transactivation assay in transiently transfected Cos-7 cells (hPPARγ). The class given is cell-based. To be noted: for Emax: COS-7, read-out: hPPARγ Efficacy (%); for hPPARγ Efficacy (%): maximum activity as percentage of the maximum activity of rosiglitazone. As for the experimental part: (§3) The cells were maintained under standard culture conditions (Dulbecco modified minimum essential Eagle medium, DMEM) supplemented with 10% fetal calf serum (FCS) at 37°C in 5% […] CO2 atmosphere. The medium was changed every 2 days. The Cos-7 cells were seeded in 60 mm discs at a density of 5.5 × 10^5 cells/disc in DMEM supplemented with 10% FCS and incubated at 37°C for 16 h before transfection. The cells were transfected in DMEM using jetPEI, with reporter (pG5-TK-pGL3) and expression (pGal4-h, hPPARα or hPPARγ) plasmids. The expression plasmid pCMV-β-galactosidase was cotransfected as a control for transfection efficacy. After 16 h the transfection was stopped adding DMEM supplemented with 10% FCS, and the cells were trypsinised and seeded in 96-well plates and incubated for 6 h in DMEM containing 10% FCS. Subsequently, the cells were incubated for 24 h in DMEM containing 0.2% FCS and increasing concentrations of the compounds or the vehicle (DMSO, maximum concentration 0.1%) were tested. Finally, the cells were washed once with PBS cooled on ice, lysed and the luciferase and β-galactosidase assays were performed.
(§4) To evaluate the compounds for PPAR transcriptional activity, the tests were conducted in a PPAR/Gal4 chimera of a human luciferase reporter gene to determine the maximum transactivation response of each compound.
A general note: Reporter assays use an easily measured gene product as a stand-in for the process of interest.

A further data set has as its target T2, hPPARα (Homo sapiens, UniProt Q07869).
T2 sequence (Q07869 167-468): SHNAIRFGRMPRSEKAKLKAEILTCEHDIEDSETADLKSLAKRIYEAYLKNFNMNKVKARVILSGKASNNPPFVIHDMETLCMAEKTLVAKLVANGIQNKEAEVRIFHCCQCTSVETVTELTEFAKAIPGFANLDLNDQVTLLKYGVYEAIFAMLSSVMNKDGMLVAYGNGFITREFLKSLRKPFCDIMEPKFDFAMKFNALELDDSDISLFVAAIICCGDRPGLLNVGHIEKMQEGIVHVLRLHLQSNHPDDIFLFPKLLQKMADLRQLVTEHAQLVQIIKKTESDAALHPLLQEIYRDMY
Nature of the data set: PPAR/Gal4 chimera luciferase reporter transactivation assay in transiently transfected Cos-7 cells (hPPARα). Format: cell-based. To be noted: for Emax: COS-7, read-out: hPPARα Efficacy (%); for pEC50: Cos-7 cells, 24 h, tested 0.001 to 10 µM, read-out: hPPARα EC50; for hPPARα Efficacy (%): maximum activity as percentage of the maximum activity of WY-14643. The procedure:
as §3, §4

Data set [2] relates to human neutrophils. Nature of the data set: MTT colorimetric cell viability assay, neutrophils. The class given is cell-based. To be noted: 30 µM, 24 h. As for the experimental part:
(§5) To evaluate potential adverse effects (cytotoxicity) of the compounds of the invention, the compounds 1 and 2 for use according to the present invention, compound 8 of the invention, and the reference compounds were evaluated at concentrations of 30 and 100 µM in human neutrophils (Fig. 1A) and primary cultures of human umbilical vein endothelial cells (HUVEC) (Fig. 1B) using two different techniques: MTT colorimetry assay and flow cytometry analysis for cellular apoptosis and survival. In addition, the synthetic compound 9 of the invention was evaluated at 10, 30 and 100 µM (Fig. 2).
(§6) MTT assay. The viability of neutrophils and HUVEC was determined by the MTT colorimetric assay MTT (3(4,5-dimethylthiazol-2-yl)-2,5-diphenyltetrazoyl bromide).
Neutrophils were obtained from the leukocyte-platelet fraction (buffy coats) of healthy donors by centrifuging with Ficoll-Hypaque density gradient.
(§7) 100 µL of neutrophils and HUVEC (2 × 10^5 cells/mL) suspension in supplemented RPMI medium were added to each well of a 96-well plate. The cells were incubated in absence and/or presence of the compounds at 37°C for24h. An MTT solution was prepared (2 mg/mL in PBS). 100 µL of the MTT solution were added to each well and incubated at 37°C for an additional 3 h. The supernatants were discarded and 200 µL of DMSO were added to each well to dissolve the precipitated formazan. The optical densities at two wavelengths (560 and 630 nm) were measured in a spectrophotometer (Infinite M200, Tecan, Mannedorf, Switzerland).

Data set [3] can be described thus: Treatment of ob/ob mice: plasma metabolites (cholesterol, HDL-c, triglycerides, free fatty acids, ALT, AST). The class given is in vivo. The following applies: oral, 4 days. The procedure: […]. […] […].
Free fatty acids (FFA) in plasma, and the enzymes aspartate aminotransferase (AST) and alanine aminotransferase (ALT) were determined with a colorimetric assay kit (Sigma-Aldrich, Madrid, Spain). In addition the plasma lipid levels for total cholesterol and triglycerides (TG) were measured by enzymatic methods (WAKO, Cape Charles, VA). The concentration of HDLcholesterol (HDL-c) was also determined with the same method used to measure total cholesterol, after precipitating the apolipoprotein-B (apoB) with dextran sulphate/MgCl2 (Sigma-Aldrich, Madrid, Spain) as previously described (Zieske et al., 2005).

For data set [4], the system named is human umbilical vein endothelial cells (HUVEC). Nature of the data set: MTT colorimetric cell viability assay, HUVEC. To be noted: 30 µM, 24 h. Format: cell-based. As for the experimental part:
as §5, §6
Human umbilical vein endothelial cells (HUVEC) were isolated with the collagenase treatment and maintained in a human specific endothelial base medium (EBM-2) supplemented with endothelial growth medium (EGM-2) and 10% FCS. Cells of the first passage were cultured until their confluence in 24-well plates. Before starting each experiment, the cells were incubated for 24 h in a medium containing 1% FBS.
as §7

Where [5] appears, read: Cos-7 cells, 24 h, tested 0.001 to 10 µM, read-out: hPPARγ EC50.

Turning to `CN(CCOc1ccc(CC2SC(=O)NC2=O)cc1)c1ccccn1` (stereo not shown) [Rosiglitazone, rosiglitazone, reference compound], in the data set on human neutrophils [1], the “effect on cell survival” value amounted to 8.5%. Also, in the data set with HUVEC, the apoptosis and survival entry was “some significant effects”; the reduced cell survival is 79,2%.

For orientation: pEC50 means the EC50 on a negative log10 scale, so that one unit is a factor of ten. Take `CCO/C(=C\CC/C(C)=C/CCC1(C)CCc2cc(OCc3ccccc3)ccc2O1)C(=O)O` (stereo not shown) [Compound 11]: the Emax at hPPARγ amounted to 62%; on hPPARα it was 96%. For the same compound, the pEC50 at hPPARγ (setting [5]) is 6.52; on hPPARα, 5.82.

In the case of `CCCOC(=O)/C(C)=C/CC/C(C)=C/CCC1(C)CCc2cc(O)cc(C)c2O1` (stereo not shown) [Compound 3], the Emax on hPPARγ came to 86%; at hPPARα, 100%.

In the case of `C/C(=C\CCC1(C)CCc2cc(OCc3ccccc3)cc(C)c2O1)CC/C=C(\C)C(=O)OCc1ccccc1` (stereo not shown) [Compound 4b], the values for the Emax at hPPARγ and at hPPARα were 0% and 28%, respectively.

Turning to `CCOC(=O)/C(=C/CC/C(C)=C/CCC1(C)CCc2cc(OCc3ccc(F)cc3)ccc2O1)OCC` (stereo not shown) [Compound 12], the Emax at hPPARγ was found to be 183%; at hPPARα it was 113%. In addition, on hPPARγ (setting [5]), the pEC50 is 5.70.

For the compound `C/C(=C\CCC1(C)CCc2cc(OCC(N)=O)cc(C)c2O1)CC/C=C(\C)C(=O)OCc1ccccc1` (stereo not shown) [Compound 4a], the Emax on hPPARγ was 0%; on hPPARα it was 18%.

On to `CCOC(=O)/C(=C/CC/C(C)=C/CCC1(C)CCc2cc(OCc3ccccc3)ccc2O1)OCC` (stereo not shown) [Compound 10], for which the Emax is 183% at hPPARγ and 60% on hPPARα. For the same compound, on hPPARγ (setting [5]), the pEC50 was 5.70.

Regarding `CCOC(=O)C(=CCCC1(C)CCc2cc(OCc3ccccc3)ccc2O1)OCC(F)(F)F` (stereo not shown) [Compound 13], at hPPARγ, the pEC50 was 6.40 and the “hPPARγ Efficacy (%)” value was determined as 39%. Besides, the “hPPARα Efficacy (%)” value at hPPARα stood at 166%.

With `Cc1cccc(Nc2cc(Cl)nc(SCC(=O)O)n2)c1C` [WY-14643, reference compound], in the data set on human neutrophils [2], the “cytotoxicity (MTT)” value stood at 9%. Also, the “triglyceride levels in plasma (in words)” value in data set [3] is “decrease of triglyceride levels in plasma, although not in a significant manner”. Also, the “increase of total cholesterol levels with respect to the control group” value in data set [3] (plasma, 30 mg/Kg/d) was 64%. Moreover, the “HDL-c with respect to the control group” value in data set [3] (plasma, compound 9 10 and 30 mg/Kg/d, WY-14643 30 mg/Kg/d) is on record as “significantly increased”.

`COC(=O)COC(=O)/C(C)=C/CC/C(C)=C/CCC1(C)CCc2cc(OC(=O)c3ccccc3)cc(C)c2O1` (stereo not shown) [Compound 6]: the figures for the Emax on hPPARγ and at hPPARα were 0% and 14%, respectively.

As to `COC(=O)COC(=O)/C(C)=C/CC/C(C)=C/CCC1(C)CCc2cc(OC)cc(C)c2O1` (stereo not shown) [Compound 8], the “toxicity (MTT)” value (with human neutrophils [2]; in data set [4]) was “showed toxicity” throughout. Further, the Emax on hPPARγ was 24%; at hPPARα it was 39%. For the same compound, the pEC50 at hPPARγ (setting [5]) is 7.92. Moreover, the “effect on cell survival” value in the data set on human neutrophils [1] was determined as 5.3%. Moreover, the apoptosis and survival result in the data set on HUVEC is reported as “some significant effects”. Besides, the reduced cell survival in the data set with HUVEC is recorded as 61,3%.

For the compound `COC(=O)C(C)=CCCC(C)=CCCC1(C)CCc2cc(O)cc(C)c2O1` (stereo not shown) [Compound 5], at hPPARγ (setting [5]), the pEC50 was 6.24. The “hPPARγ Efficacy (%)” value on hPPARγ stood at 35%. At hPPARα, the “hPPARα Efficacy (%)” value is on record as 27%.

As to `COC(=O)C(OC(=O)/C(C)=C/CC/C(C)=C/CCC1(C)CCc2cc(OC)cc(C)c2O1)C(=O)OC` (stereo not shown) [Compound 7], the Emax at hPPARγ came to 37%; on hPPARα, 76%.

As to `COc1cc(C)c2c(c1)CCC(C)(CC/C=C(\C)CC/C=C(\C)C(=O)O)O2` (stereo not shown) [Polycerasoidin, 2, polycerasoidin], the “toxicity (MTT)” value (with human neutrophils [2]; in data set [4]) was “showed toxicity” in each case. Moreover, the Emax on hPPARγ amounted to 55%; on hPPARα it was 82%. For the same compound, the negative-log EC50 (pEC50) at hPPARγ (setting [5]) and at hPPARα was 6.00 in each case. Further, the apoptosis and survival result in the data set with HUVEC is given as “some significant effects”. The reduced cell survival in the data set on HUVEC is recorded as 38,9%.
